Laboratory results published in patent publication US20210154271A1, “CORNEAL EPITHELIAL CELL CHEMOTAXIS PROMOTER” (SHIODA LIFE SCIENCE INC., priority 2018, published 2021).
Ends that are not written are not given here.

Columns and labels:
HCEC-II cells [1] = test: Analysis of cell growth ability (MTT-assay); type: cell-based, human
Procedure: (§1) Normal human corneal epithelial cells HCEC-II (manufactured by Kurabo Industries Ltd.) were cultured in an OcuLifeBM medium containing OcuLifeLifeFactor (both manufactured by Kurashiki Spinning Co., Ltd.) at 37° C., in the presence of 5% CO2.
HCEC-II cells were seeded in 96-well plates and cultured for 24 h. Subsequently, PACAP alone, or PACAP and AraC (cytarabine) were added. AraC (cytarabine) is a cytostatic agent. After the addition of these agents, the cell growth ability was analyzed by measuring the number of live cells from the value of absorbance at 570 nm using MTT cell growth kit I (manufactured by Roche Life Science Co., Ltd.). The reference wavelength was set at 650 nm.
The effects of PACAP are either due to 1) promoting cell growth, 2) promoting cell chemotaxis, or 3) promoting both cell growth and chemotaxis. To elucidate which of these could be caused, cell growth on days 1 and 4 after adding various concentrations of PACAP (10^−9 M to 10^−13 M) were analyzed by MTT-assay.

[2] = test system: model mice with injured corneas; test: Instillation of PACAP receptor antagonists on model mice with injured corneas; type: in vivo, mouse
Source text: Next, to investigate which types of receptors are involved in healing-promoting effects of injured corneas by PACAP, the inventors performed an instillation experiment of PACAP receptor antagonists (PACAP6-38, VIP6-28). PACAP6-38 is an antagonist of PAC1R and VPAC2R. VIP6-28 is an antagonist of VPAC1R and VPAC2R.
In addition to the same operations as the instillation experiment in Example 5, PACAP6-38 (antagonist) (10^−9 M) or VIP6-28 (antagonist) (10^−9 M) was instilled immediately before instillation of PACAP and saline. Instillation of PACAP and saline ware performed every 2 hours.
Following four groups were created; the saline-only-instilled group, the PACAP-only-instilled group, the group instilled saline and an antagonist simultaneously, the group instilled PACAP and an antagonist simultaneously.
FIG. 10A is the result of PACAP6-38, and FIG. 10B is the result of VIP6-28. In FIG. 10, “saline” indicates the saline-only-instilled group. “PACAP” indicates the PACAP-only-instilled group. “PACAP6-38” or “VIP6-28” indicates the group instilled saline and an antagonist simultaneously. “PACAP6-38+PACAP” or “VIP6-28+PACAP” indicates the group instilled PACAP and an antagonist simultaneously.
As well as FIG. 9C, the area of the injured site of the cornea immediately after injury to the cornea (0 hour) is set as 100%.

[3] = test system: mice with lacrimal glands removed, injured corneas; test: Corneal healing in mice with lacrimal glands removed; type: in vivo, mouse; conditions: LG−PACAP vs LG−saline, 10^−11 M PACAP, 12 hours after injuring, p<0.05 (FIG. 11)
Source text: (§2) First, mice with lacrimal glands removed were generated. Under inhalation anesthesia with sevoflurane, the extraorbital lacrimal glands and lacrimal ducts of mice were removed. Both lacrimal glands were removed after the lacrimal ducts were removed to expose the intraorbital lacrimal glands. Then the skin was sutured and the mice were kept warm until awaking from anesthesia. The amount of tear secretion in mice before and after removal of lacrimal glands was confirmed by the cotton thread method.
FIG. 11 is a graph showing the measurement result of the area of injured sites of corneas (fluorescent area) of upon administration of saline or PACAP at 0, 12, and 24 hours after injuring of corneas of mice. The method and the frequency of administration of saline or PACAP were the same as in Example 5.
(§3) The area of the injured site of the cornea immediately after injury to the cornea (0 hour) is set as 100%.
In FIG. 11, “LG+saline” indicates the result of saline administration to mice without lacrimal glands removed. “LG+PACAP” indicates the result of PACAP administration to mice without lacrimal glands removed. “LG−saline” indicates the result of saline administration to mice with lacrimal glands removed. “LG−PACAP” indicates the result of PACAP administration to mice with lacrimal glands removed. The concentration of PACAP is 10^−11 M.

[4] = test system: Normal human corneal epithelial cells HCEC-II; test: Scratch assay on HCEC-II cells; type: cell-based
Procedure: as §1
Wound-healing-promoting effects of PACAP were evaluated by scratch assay. HCEC-II cells were seeded in 24-well plates, cultured, and then wounded by a CELL Scratcher scratch stick (manufactured by Asahi Glass Co., Ltd.) (between a dotted line and a dotted line in FIG. 1).
Immediately after wounding, PACAP38 alone or PACAP38 and AraC were added, and cells infiltrating the wounded area were observed.
(§4) Outcomes of scratch assay and BrdU labeling were evaluated as following. Images were acquired by BZ-X700 (Keyence Inc.), and then quantitatively analyzed using the analysis applications (hybrid cell counts, macro cell counts) (Keyence Inc.).

[5] = test system: mice with lacrimal glands removed; test: Tear secretion by the cotton thread method; type: in vivo, mouse; conditions: mice with lacrimal glands removed (not shown in figures)
Source text: as §2

HCEC-II cells [6] = test: BrdU labeling of dividing cells; type: cell-based, human; conditions: 18 hours after adding PACAP (FIGS. 4A, 4B and 5)
Procedure: Post-wounding dividing cells were observed by labeling with BrdU Labeling and Detection Kit I (Roche).
as §4

[7] = test system: model mice with injured corneas; test: PACAP instillation on model mice with injured corneas; type: in vivo, mouse (C57BL/6J)
Procedure: To study the healing effects of PACAP instillation on an injured site of a corneal, the inventors created model mice with injured corneas. Injured sites were created by marking a cornea of a mouse (C57BL/6J, male, 8-12 weeks old) with a 1-mm-diameter biopsy punch and detaching corneal epithelia within the marks with tweezers. At the injured sites, 2 μL of 10^−9 M PACAP, 10^−11 M PACAP, 10^−13 M PACAP, or saline was instilled every 2 hours for a total of seven times up to 12 hours later. In addition, the injured sites were visualized by instilling 2 μL of 0.1% fluorescein (a fluorescent colorant) in a total of 3 times after 0, 12, and 24 hours, and photographing was performed.
In addition, eyeballs at after 0 and 12 hours were removed, and tissue sections were made after paraffin embedding, followed by hematoxylin and eosin staining (HE staining). From the captured fluorescent images, by using image analysis software (ImageJ), the area and the outer periphery of injured sites of corneas were measured when saline was instilled and when PACAP of the respective concentrations were instilled.
as §3

[8] = test system: SV40-human corneal epithelial cell line (HCEC); test: In vitro scratch assay on monolayer sheets of human corneal cultured cells; type: cell-based; conditions: 10^−11 M PACAP, 6 hours after scratching, vs PBS-treated control group (FIG. 12B)
Procedure: To evaluate the corneal healing effects of PACAP in vitro, a scratch assay was performed using a human corneal epithelial cell line. A SV40-human corneal epithelial cell line (HCEC) was purchased from the Human Science Research Resource Bank (Health Science Research Resources Bank). Cells were cultured in a medium containing DMEM, 1×antibiotic-antifungal agent (manufactured by Thermo Fisher Scientific Co., Ltd.), and 10% fetal bovine serum (FBS). Cultures were performed at 37° C. in the presence of 5% CO2.
In invasion assays, a floating HCEC with 10^6 cells was seeded in 12-well plates. After 2 days of incubation, the confluent cell layer was cross-shaped wounded with plastic sticks. PBS or various types of PACAP (final concentrations: 10^−15 M, 10^−13 M, 10^−11 M, 10^−9 M, and 10^−7 M) were added to […]. Scratch sites (wounded sites) were photographed by Nicon Biostation CT (Nikon Co., Ltd.) at regular intervals. Areas of the scratch sites were measured by CL-Quant software (made by Nikon Inc.).
The area of the scratch site immediately after the scratch (0 hour) is set as 100%.

[9] = test system: eye of a rabbit with detached corneas; conditions: PACAP administered to eye, in comparison with controls; cited from earlier work
[10] = 10^−9 M PACAP and 15 μM AraC (FIG. 1A to C)

Compound: Nc1ccn([C@@H]2O[C@H](CO)[C@@H](O)[C@@H]2O)c(=O)n1 [AraC, cytarabine, reference compound]
- effect of AraC on the cell-growth-promoting effects of PACAP (HCEC-II cells [1]; 15 μM AraC): almost completely suppressed

Compound: PACAP6-38: PACAP receptor antagonist; antagonist of PAC1R and VPAC2R (FTDSYSRYRKQMAVKKYLAAVLGKRYKQRVKNK; ends and bridges not checked; UniProt P18509 137-169, looked up, fragment)
- effect of antagonist on PACAP-induced healing of injured corneas ([2]; antagonist 10^−9 M instilled with PACAP, 12 hours after injuring, vs PACAP-only group, p<0.05 (FIG. 10A)): significantly suppressed

Compound: PACAP: Pituitary Adenylate Cyclase-Activating Polypeptide; PACAP38, 38 amino acid residues (Peptide Research Institute, Osaka) (HSDGIFTDSYSRYRKQMAVKKYLAAVLGKRYKQRVKNK; ends and bridges not checked; UniProt P18509 132-169, looked up)
- area of injured sites of corneas (fluorescent area) [3]: became significantly smaller
- cell-infiltration compared with 10^−9 M PACAP alone [4, 10]: less
- cell-infiltration compared with controls [4, 10]: increased more than in controls
- area of the wounded site at 18 h ([4]; 10^−9 M PACAP in the presence of 15 μM AraC, compared to the control (FIG. 6)): increased
- cellular infiltrates at the wounded site ([4]; 10^−9 M PACAP, 4 days post-wounding, compared to controls (FIG. 1A, B)): more cellular infiltrates were observed at the wounded site
- area of the wounded site ([4]; 10^−9 M PACAP, compared to controls (FIG. 2, 18 h)): reduced
- area of the wounded site at 18 h ([4]; 10^−11 M PACAP in the presence of 15 μM AraC (FIG. 6)): reduced
- tear secretion after instillation [5]: did not promote tear secretion
- number of BrdU positive (dividing) cells (HCEC-II cells [6]): an increase of number of BrdU positive cells
- area of the injured site of the cornea (fluorescent area) ([7]; 10^−9 M PACAP instilled, 12 hours after injuring, vs saline group (FIG. 9C)): significantly smaller
- periphery of the injured site of the cornea ([7]; 10^−9 M PACAP instilled, 12 hours after injuring, vs saline group (not shown in figures)): significantly smaller
- area of the injured site of the cornea (fluorescent area) ([7]; 10^−11 M PACAP instilled, 12 hours after injuring, vs saline group (FIG. 9C)): significantly smaller
- periphery of the injured site of the cornea ([7]; 10^−11 M PACAP instilled, 12 hours after injuring, vs saline group (not shown in figures)): significantly smaller
- size of injured sites of corneas (fluorescence image) ([7]; 12 and 24 hours after injuring, PACAP-instilled vs saline-instilled group (FIG. 9A)): became smaller than those of the saline-instilled group
- corneal epithelium in HE staining ([7]; 12 hours after instillation (FIG. 9B)): the corneal epithelium was restored
- area of the injured site of the cornea (fluorescent area) ([7]; all concentrations (10^−9, 10^−11, 10^−13 M), 24 hours after injuring, p<0.01 vs saline group (FIG. 9C)): significantly smaller
- periphery of the injured site of the cornea ([7]; all concentrations, 24 hours after injuring (not shown in figures)): significantly smaller
- most effective concentration of PACAP ([7]; instillation, injured cornea area): 10^−11 M
- area of the scratch site [8]: significantly reduced
- cell growth by MTT-assay (HCEC-II cells [1]; 1 day after addition, 10^−9 M to 10^−13 M PACAP, relative to cells with no PACAP (FIG. 3)): cells grew at any concentration
- cell growth by MTT-assay (HCEC-II cells [1]; 4 days after addition, 10^−9 M to 10^−13 M PACAP (FIG. 3)): the effect was remarkable
- restoration of corneal epithelium [9]: accelerated

Compound: VIP6-28: PACAP receptor antagonist; antagonist of VPAC1R and VPAC2R (FTDNYTRLRKQMAVKKYLNSILN; ends and bridges not checked; UniProt P01282 130-152, looked up, fragment)
- effect of antagonist on PACAP-induced healing of injured corneas ([2]; antagonist 10^−9 M instilled with PACAP (FIG. 10B)): not suppressed
